Source: patent US20240277585A1, “COMPOSITION OF LIPID NANOPARTICLE CONTAINING VITIS VINIFERA EXTRACT, COSMETIC USES OF A COMPOSITION OF LIPID NANOPARTICLE CONTAINING VITIS VINIFERA EXTRACT, ANTIOXIDANT DERMOCOSMETIC PRODUCT AND FOR PREVENTING SKIN AGING AND SKIN CARE METHOD” (ACHÉ LABORATÓRIOS FARMACÊUTICOS S.A., priority 2021, published 2024)

How the values were obtained:
Type in all cases: biochemical
[1] = tested on: elastase; assay: Activity of the elastase enzyme
Description: (§1) The anti-aging effect of the composition of the first aspect was determined by the methods that measure the activity of the elastase enzyme and the activity of the metalloproteases (MMP) enzyme.

[2] = target: T1, MMP 1 (Homo sapiens, UniProt P03956); assay: Activity of the metalloproteases (MMP) enzyme
T1 sequence (P03956 100-469): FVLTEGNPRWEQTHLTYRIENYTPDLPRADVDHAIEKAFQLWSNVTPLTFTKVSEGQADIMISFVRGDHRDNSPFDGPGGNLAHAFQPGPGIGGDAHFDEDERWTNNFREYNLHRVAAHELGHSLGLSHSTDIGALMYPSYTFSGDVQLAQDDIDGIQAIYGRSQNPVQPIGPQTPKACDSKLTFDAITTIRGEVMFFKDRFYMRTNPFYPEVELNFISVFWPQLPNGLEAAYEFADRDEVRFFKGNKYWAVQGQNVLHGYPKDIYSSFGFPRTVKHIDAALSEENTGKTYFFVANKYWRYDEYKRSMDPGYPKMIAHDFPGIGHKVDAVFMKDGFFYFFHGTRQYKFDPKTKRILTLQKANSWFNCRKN
Description: as §1

[3] = target: MMP 12 (Homo sapiens, UniProt P39900); assay: Activity of the metalloproteases (MMP) enzyme
MMP 12, sequence (P39900 106-470): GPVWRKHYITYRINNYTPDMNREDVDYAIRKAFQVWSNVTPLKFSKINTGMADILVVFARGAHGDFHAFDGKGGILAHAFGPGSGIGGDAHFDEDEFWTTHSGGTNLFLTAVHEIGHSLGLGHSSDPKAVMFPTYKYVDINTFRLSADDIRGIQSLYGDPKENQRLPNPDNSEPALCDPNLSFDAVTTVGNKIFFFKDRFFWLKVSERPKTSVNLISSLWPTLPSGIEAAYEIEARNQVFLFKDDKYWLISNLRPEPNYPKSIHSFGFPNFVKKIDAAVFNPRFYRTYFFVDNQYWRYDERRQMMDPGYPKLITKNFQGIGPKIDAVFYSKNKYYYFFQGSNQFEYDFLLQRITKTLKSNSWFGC
Description: as §1

[4] = target: MMP 3 (Homo sapiens, UniProt P08254); assay: Activity of the metalloproteases (MMP) enzyme
MMP 3, sequence (P08254 100-477): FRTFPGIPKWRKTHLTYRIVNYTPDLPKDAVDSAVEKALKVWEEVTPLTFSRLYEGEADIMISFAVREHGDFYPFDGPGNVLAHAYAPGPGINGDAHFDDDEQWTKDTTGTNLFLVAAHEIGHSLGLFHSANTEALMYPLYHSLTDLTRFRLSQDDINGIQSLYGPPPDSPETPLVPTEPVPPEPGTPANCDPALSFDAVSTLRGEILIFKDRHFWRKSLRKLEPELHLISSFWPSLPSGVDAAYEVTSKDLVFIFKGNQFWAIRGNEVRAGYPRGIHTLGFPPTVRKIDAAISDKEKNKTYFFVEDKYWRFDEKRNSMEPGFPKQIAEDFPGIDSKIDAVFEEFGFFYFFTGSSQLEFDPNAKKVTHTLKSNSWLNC
Description: as §1

Inhibition of the activity of elastase [1] | Inhibition of the activity of MMP 1 [2] | Inhibition of the activity of MMP 12 [3] | Inhibition of the activity of MMP 3 [4] | Compound
do not present such result | do not present this result | do not present this result | do not present this result | O=C1O[C@H]([C@@H](O)CO)C(O)=C1O [Vitamin C]
do not present such result | do not present this result | do not present this result | do not present this result | Vitamin E
